Results published in paper PMC6395809 (Scientific Reports, 2019).
Read-outs that look alike come from different tables or passages of the source. Values belong to the molecule of their own block, whether it stands above or below them.

How the values were obtained:
[1] = target: T1, interaction between GST_SH3_p130Cas and MBP_shortPPII_ErbB2 recombinant proteins (Homo sapiens, UniProt P56945); test: Competitive ELISA binding assay; format: biochemical; settings: increasing concentration of compound
T1 construct: fragment of p130Cas protein (aminoacids 3–71); made in house; host or cells: Escherichia coli BL21
T1 sequence (P56945 3-71): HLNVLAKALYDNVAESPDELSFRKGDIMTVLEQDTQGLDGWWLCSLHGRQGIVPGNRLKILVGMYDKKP
Description: The day after, washing steps and saturation were performed using PBS and 3%BSA in PBS at room temperature. MBP-tagged ErbB2 purified recombinant proteins and MBP_ctrl (100 nM/well) were added in 100 μl/well of PBS for 2 h. After washing, anti-MBP mouse monoclonal antibody (0.25 μg/ml) was added for 2 h followed by peroxidase conjugated anti-mouse secondary antibody for 1 h.
For validation of inhibitory activity of selected compounds, ELISA binding assay was setup as reported above.

[2] = tested on: BT474 breast cancer cells; test: Cell proliferation assay (MTT), BT474; format: cell-based; settings: Homo sapiens, BT-474, 72 h, BT474, 3 days
Description: (§1) For proliferation assay BT474, SKBR3 and SKH100 cells were seeded in 8 replicates at 1000 cells/well concentration (25% confluency) in four different 96-well cell culture plates and then incubated with increasing concentration of 1 and 2 for 3 days. Changes in proliferation rate were detected by MTT assay (11465007001 Roche, Cell Proliferation Kit I) following manufacturer instruction. Sterile DMSO was used as control for non-specific solvent effect on proliferation.

[3] = target: T2, endogenous p130Cas/ErbB2 complex in BT474 cells (Homo sapiens, UniProt P56945); test: Co-immunoprecipitation of p130Cas/ErbB2 in BT474 cells; format: cell-based; settings: BT474 cells pre-treated for 24 hours
T2 construct: endogenous p130Cas/ErbB2 complex in BT474 cells; host or cells: BT474
T2 sequence (P56945 1-870): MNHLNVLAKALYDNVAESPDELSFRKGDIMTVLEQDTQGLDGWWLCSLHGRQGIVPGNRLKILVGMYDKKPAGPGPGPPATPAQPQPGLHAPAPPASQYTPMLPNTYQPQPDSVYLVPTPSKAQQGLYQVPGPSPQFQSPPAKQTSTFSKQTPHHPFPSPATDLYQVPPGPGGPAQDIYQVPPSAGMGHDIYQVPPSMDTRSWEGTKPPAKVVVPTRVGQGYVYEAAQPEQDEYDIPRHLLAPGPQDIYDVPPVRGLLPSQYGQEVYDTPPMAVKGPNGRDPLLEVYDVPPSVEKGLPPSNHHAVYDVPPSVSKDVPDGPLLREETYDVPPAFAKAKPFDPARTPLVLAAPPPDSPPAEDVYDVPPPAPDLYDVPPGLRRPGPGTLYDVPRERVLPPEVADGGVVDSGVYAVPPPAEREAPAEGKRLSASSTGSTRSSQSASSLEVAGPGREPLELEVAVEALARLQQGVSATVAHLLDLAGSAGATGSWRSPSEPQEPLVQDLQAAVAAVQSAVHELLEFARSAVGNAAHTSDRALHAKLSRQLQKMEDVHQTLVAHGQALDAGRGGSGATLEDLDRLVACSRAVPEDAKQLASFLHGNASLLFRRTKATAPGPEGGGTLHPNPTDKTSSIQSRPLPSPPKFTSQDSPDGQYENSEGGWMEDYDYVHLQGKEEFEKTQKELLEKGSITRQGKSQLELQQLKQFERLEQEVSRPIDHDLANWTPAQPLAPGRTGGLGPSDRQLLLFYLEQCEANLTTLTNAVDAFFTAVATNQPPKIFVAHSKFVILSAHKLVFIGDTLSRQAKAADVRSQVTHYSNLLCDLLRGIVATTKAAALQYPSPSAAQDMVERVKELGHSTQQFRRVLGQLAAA
Description: GAPDH expression was used as loading control. Data are represented as mean ± SD. **p < 0.01, ***p < 0.001.
To assess whether these compounds could interfere with p130Cas/ErbB2 association in a cellular context, ErbB2-positive BT474 breast cancer cells were pre-treated for 24 hours with 1 or 2 and subjected to co-immunoprecipitation experiments.

[4] = target: T3, GST_SH3_p130Cas recombinant protein (SH3 domain of p130Cas) (Homo sapiens, UniProt P56945); test: Fluorescence quenching of Fl-GST_SH3_p130Cas by compounds; format: binding
T3 construct: fragment of p130Cas protein (aminoacids 3–71); made in house; host or cells: Escherichia coli BL21
T3 sequence (P56945 3-71): T1 sequence (P56945 3-71)
Description: To experimentally validate the binding of compound 1 and 2 on GST_SH3_p130Cas recombinant protein, fluorescence quenching experiments were performed.
The fluorescence spectra of Fl-GST_SH3_p130Cas in the absence and in the presence of 1 and 2 at different concentrations are shown in Fig. 4C.
All fluorescence spectra were recorded with a Horiba Jobin Yvon Fluorolog3 TCSPC spectrofluorophotometer with 1.0 cm quartz cells For fluorescence experiments, GST_SH3_p130Cas was firstly tagged with fluorescein (Fl-GST_SH3_p130Cas) using a methodology described in the literature[34] see Supporting Information). […] Fluorescence emission spectra of Fl-GST_SH3_p130Cas in the presence of 1 and 2 were obtained using the following concentrations: Fl-GST_SH3_p130Cas = 0.7 μM; 1 and 2 = 0–21 μM.
(§2) The variation in fluorescence emission at 518 nm of Fl-GST_SH3_p130Cas was monitored in all experiments.
Fluorescence data analysis
The obtained spectroscopic data were analysed by a […] non linear least-squares fit procedures reported in Equation 2 2: […]
in which y is the binding derived by measuring fluorescence intensity, [Q] is the concentration of tested compound, Bmax is the maximum amount of protein/compound complex (Fl-GST_SH3_p130Cas/compound) formed at saturation and Kd is the equilibrium dissociation constant. […]

[5] = tested on: SKBR3 cells; test: Combination with Trastuzumab in SKBR3 cells (MTT); format: cell-based, human; settings: SKBR3, Trastuzumab 25 μg/ml, three days
Description: (§3) Figure 6 Impact of 1 and 2 compounds on BT474 breast cancer cells. (A) To assess whether 1 and 2 could trigger cytotoxic effects on living cells, BT474 cells were treated with serial dilutions of 1 and 2 (or sterile DMSO). After three days, live cells were detected by standard MTT assay, highlighting the appearance of cytotoxic effects above 75 μM for compound 1. […] Cells were treated with different concentration of the 1 and 2 and proliferation was assayed three days later by performing MTT assay. Results were fitted with four-parameter dose-response curve using GraphPad Prism7 software. […] (E) SKBR3 cells were treated with Trastuzumab (25 μg/ml) either alone or in combination with compound 1 or 2 at the indicated doses. After three days, live cells were detected by standard MTT assay. Data are represented as mean ± SD. *p < 0.05, **p < 0.01. […] After three days, live cells were detected by standard MTT assay. […]
(§4) For proliferation assay BT474, SKBR3 and SKH100 cells were seeded in 8 replicates at 1000 cells/well concentration (25% confluency) in four different 96-well cell culture plates and then incubated with increasing concentration of 1 and 2 for 3 days. Changes in proliferation rate were detected by MTT assay (11465007001 Roche, Cell Proliferation Kit I) following manufacturer instruction. […]

[6] = tested on: SKH100 Trastuzumab-resistant cells; test: Combination with Trastuzumab in SKH100 Trastuzumab-resistant cells (MTT); format: cell-based, human; settings: SKH100, Trastuzumab 100 μg/ml, three days
Description: as §3, §4

[7] = target: T4, binding between Fl-GST_SH3_p130Cas and MBP_shortPPII_ErbB2 (Homo sapiens, UniProt P56945); test: Fluorescence experiment: MBP_shortPPII_ErbB2 added to Fl-GST_SH3_p130Cas/compound complex; settings: compared to compound 2; MBP_shortPPII_ErbB2 0.1-0.75 μM
T4 construct: fragment of p130Cas protein (aminoacids 3–71); made in house; host or cells: Escherichia coli BL21
T4 sequence (P56945 3-71): T1 sequence (P56945 3-71)
Description: For fluorescence experiments, GST_SH3_p130Cas was firstly tagged with fluorescein (Fl-GST_SH3_p130Cas) using a methodology described in the literature[34] see Supporting Information). […] Fluorescence emission spectra of Fl-GST_SH3_p130Cas in the presence of 1 and 2 were obtained using the following concentrations: Fl-GST_SH3_p130Cas = 0.7 μM; 1 and 2 = 0–21 μM.
as §2

[8] = tested on: ErbB2-negative HEK 293T cells; test: Proliferation assay of ErbB2-negative HEK 293T cell line; format: cell-based, human; settings: serial dilutions, three days, MTT
Description: Figure S5. Proliferation assay of ErbB2-negative HEK 293T cell line treated with inhibitory […]
To assess whether 1 and 2 could affect cell proliferation independently from p130Cas/ErbB2 inhibition, ErbB2 ErbB2-negative cell line, HEK 293T cells were treated with serial dilutions of 1 and 2 (or sterile DMSO). After three days, live cells were detected by standard MTT assay. […]
any effect even at high concentration.
(1 picture or pasted object on this page, not shown here)

[9] = tested on: SKBR3 breast cancer cells; test: Cell proliferation assay (MTT), SKBR3; format: cell-based; settings: Homo sapiens, SK-BR-3, 72 h, SKBR3, 3 days
Description: as §1

[10] = tested on: BT474 cells; test: Cytotoxicity assay (MTT); format: cell-based, human; settings: BT474, three days, serial dilutions 250-0.12 μM
Description: For cytotoxicity assay BT474 cells were seeded at 5000 cells/well concentration (100% confluency) in a 96-well cell culture plate and incubated with serial dilutions of 1 and 2 compounds (from 250 μM to 0.12 μM). Cytotoxicity was evaluated after 3 days by MTT assay (11465007001 Roche, Cell Proliferation Kit I) following manufacturer instruction.

[11] = tested on: ErbB2-positive breast cancer patients; settings: cited from earlier work
[12] = target: T5, MBP_shortPPII_ErbB2 (human (by the printed accession …, UniProt P04626-1 1103-1194)); test: other fluorescence titration; Fl-GST_SH3_p130Cas fixed at 3.0 μM, MBP_shortPPII_ErbB2 0.05–3.0 μM; emission at 518 nm; nonlinear least-squares fit; settings: both partners purified
T5 construct: ErbB2 cytosolic portion, aminoacids 1103-1194, holds the polyproline type II motif V[RPQPPSP]R at 1145-1153 (isoform 1, P04626-1); the printed residue limits are kept; source: E. coli BL21, purified (Sepharose amylose column), dialyzed against PBS; not shown: MBP, N-terminal, kept

[13] = target: T6, MBP_longPPII_ErbB2 (human (by the printed accession …, UniProt P04626-1 1103-1255)); test: co-IP; in vitro binding assay: GST-tagged p130Cas and MBP-tagged ErbB2 purified proteins mixed in Interaction Buffer with 1% BSA overnight at 4 °C; immunoprecipitated with anti-MBP and proteinA Sepharose; blot anti-GST; settings: both partners purified
T6 construct: ErbB2 cytosolic portion, aminoacids 1103-1255 (isoform 1, P04626-1); the printed residue limits are kept; source: E. coli BL21, purified (Sepharose amylose column), dialyzed against PBS; not shown: MBP, N-terminal, kept

[14] = target: T5, MBP_shortPPII_ErbB2; test: far-Western, overlay or dot blot; 1 μl of GST-tagged p130Cas proteins spotted on nitrocellulose; probed with MBP-tagged ErbB2 protein (1 μg/ml) in Interaction Buffer (50 mM Tris-HCl pH7.4, 150 mM NaCl, 1%Triton-X100) at 4 °C overnight; detected with anti-MBP; settings: both partners purified
[15] = target: T7, MBP_R → D_shortPPII_ErbB2 (human (by the printed accession …, UniProt P04626-1 1103-1194, R to D at position 44 (position 1146 in the original ErbB2 sequence))); test: ELISA; direct binding: 100 nM/well of GST_SH3_p130Cas (or mutants) coated in PBS overnight at 4 °C; MBP-tagged ErbB2 proteins (100 nM/well) in PBS for 2 h; detected with anti-MBP; normalized on GST_ctrl and MBP_ctrl; settings: both partners purified
T7 construct: ErbB2 cytosolic portion, aminoacids 1103-1194, with R to D at position 44 of the fragment (1146 in ErbB2); motif V[DPQPPSP]R; source: E. coli BL21, purified (Sepharose amylose column); not shown: MBP, N-terminal, kept

Molecule: O=C(CNC(=O)NC1CC1)Nc1nnc(C23CC4CC(CC(C4)C2)C3)s1 [Compound 1]
inhibition of GST_SH3_p130Cas/MBP_shortPPII_ErbB2 association [1]: dose-dependent inhibition
EC50 [2]: 52.3 ± 6.38 µM
association of p130Cas to ErbB2 (co-immunoprecipitation) [3]: reduced the association
Kd [4]: 200 nM
effect on efficacy of Trastuzumab treatment [5]: significantly enhances
effect on sensitivity of resistant cells to Trastuzumab [6]: partially restores
efficiency in preventing binding between Fl-GST_SH3_p130Cas and MBP_shortPPII_ErbB2 [7]: more efficient
effect on cell proliferation [8]: no significant effect

Molecule: NS(=O)(=O)N[C@H]1CCCc2ccccc21 [Compound 2]
inhibition of GST_SH3_p130Cas/MBP_shortPPII_ErbB2 association [1]: dose-dependent inhibition
EC50 [9]: 274 ± 27.2 µM
EC50 [2]: 240 ± 26 µM
association of p130Cas to ErbB2 (co-immunoprecipitation) [3]: reduced the association
Kd ([4]; fluorescence quenching of Fl-GST_SH3_p130Cas, emission at 518 nm, nonlinear least-squares fit, read-out: KD (equilibrium dissociation constant)): 5000 nM
concentration at which cytotoxic effects appear [10]: > 250 µM
effect on cell proliferation [8]: did not have

Molecule: N#CC(Cc1ccc(O)cc1)c1ccc(O)cc1 (stereo not drawn) [DPN, Diarylpropionitrile, reference compound]
inhibition of GST_SH3_p130Cas/MBP_shortPPII_ErbB2 association [1]: no modulation

Molecule: T-DM1
patients in whom treatment failed to induce response [11]: 57%

Other lines, results leading:

Kd [12]: 40.7 nM
B1: Fl-GST_SH3_p130Cas (domain or fragment, UniProt P56945 3-71, looked up)
chain: T1 sequence (P56945 3-71)
modifications: also: fluorescein (site not given here)
notes: source: E. coli BL21, purified (Sepharose glutathione column), then tagged with fluorescein; not shown: GST, N-terminal, kept

binding result [13]: binds
binding result [14]: binds
binding result [15]: binds
B2: GST_SH3_p130Cas (domain or fragment, UniProt P56945 3-71, looked up)
chain: T1 sequence (P56945 3-71)
notes: p130Cas SH3 domain, aminoacids 3-71, amplified from cDNA and cloned in pGEX-4T3; also called SH3 domain of p130Cas; source: E. coli BL21, purified (Sepharose glutathione column), dialyzed against PBS; not shown: GST, N-terminal, kept
